Laboratory results: patent US11572399B2, “Long-acting GIP peptide analogues” (University of Copenhagen, priority 2017, dated 2023)
Read-outs that look alike come from different tables or passages of the source. Peptide text beside a SMILES is read from it. * marks the point of attachment. C16 diacid = O=C(O)CCCCCCCCCCCCCCC(=O)*; Stearoyl = CCCCCCCCCCCCCCCCCC(=O)*; Palmitoyl = CCCCCCCCCCCCCCCC(=O)*

Experiments:
human GIP receptor [1] = target: T1, human GIP receptor (Homo sapiens, UniProt P48546); test: cAMP accumulation assay, antagonism of a GIP-mediated cAMP response (50-80% of max); assay type: cell-based
T1 construct: host or cells: COS-7, transient transfection (calcium phosphate), cDNA in pCMV-Script
T1 sequence (P48546 22-466): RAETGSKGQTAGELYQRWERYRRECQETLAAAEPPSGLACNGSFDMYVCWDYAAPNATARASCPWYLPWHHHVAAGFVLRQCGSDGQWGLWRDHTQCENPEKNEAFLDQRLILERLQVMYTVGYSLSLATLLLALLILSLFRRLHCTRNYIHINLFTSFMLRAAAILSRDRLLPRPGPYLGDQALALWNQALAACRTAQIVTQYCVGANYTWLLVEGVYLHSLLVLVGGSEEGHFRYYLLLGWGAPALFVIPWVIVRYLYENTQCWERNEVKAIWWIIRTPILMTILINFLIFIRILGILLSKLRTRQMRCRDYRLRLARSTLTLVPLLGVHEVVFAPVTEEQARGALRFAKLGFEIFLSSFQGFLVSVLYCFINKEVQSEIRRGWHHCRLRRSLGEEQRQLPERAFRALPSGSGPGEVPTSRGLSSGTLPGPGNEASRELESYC
Protocol: The day after, the cells were washed twice with Hepes buffered saline (HBS) buffer and incubated with HBS and 1 mM 3-isobutyl-1-methylxanthine (IBMX) for 30 min at 37° C. […] The HitHunter™ cAMP XS assay (DiscoveRx) was carried out according to the manufacturer's instructions.

human GIP receptor [2] = target: T1, human GIP receptor; test: cAMP accumulation assay, agonism (ligand alone); assay type: cell-based; settings: Table 1; for Emax: COS-7, intrinsic cAMP activity
human GIP receptor [3] = target: T1, human GIP receptor; test: 125I-human GIP competition binding assay, in the presence and absence of 2% HSA; settings: fold change +HSA/−HSA;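 also: nonspecific binding taken as radioligand bound to untransfected cells, IC50 obtained from nonlinear regression fits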
[4] = transiently transfected COS-7 cells, Table 1 and text, read-out: cAMP antagonism nM (IC50, antagonistic potency)
[5] = COS-7 cells, read-out: cAMP agonism nM (EC50)

SMILES | IC50 (human GIP receptor [1]; [4]) [nM] | Emax (human GIP receptor [2]; COS-7 cells) [%] | further results
CCCCCCCCCCCC(=O)NCCCC[C@H](NC(=O)[C@H](CCC(N)=O)NC(=O)[C@H](C)NC(=O)[C@H](CC(C)C)NC(=O)[C@H](CC(C)C)NC(=O)[C@H](Cc1c[nH]c2ccccc12)NC(=O)[C@H](CC(N)=O)NC(=O)[C@@H](NC(=O)[C@H](Cc1ccccc1)NC(=O)[C@H](CC(=O)O)NC(=O)[C@H](CCC(N)=O)NC(=O)[C@H](CCC(N)=O)NC(=O)[C@H](Cc1c[nH]cn1)NC(=O)[C@@H](NC(=O)[C@H](CCCCN)NC(=O)[C@H](CC(=O)O)NC(=O)[C@H](CCSC)NC(=O)[C@H](C)NC(=O)[C@@H](NC(=O)[C@H](CO)NC(=O)[C@H](Cc1ccc(O)cc1)NC(=O)[C@H](CC(=O)O)NC(=O)[C@H](CO)NC(=O)[C@@H](NC(=O)[C@H](Cc1ccccc1)NC(=O)[C@@H](NC(=O)CNC(=O)[C@@H](N)CCC(=O)O)[C@@H](C)O)[C@@H](C)CC)[C@@H](C)CC)[C@@H](C)CC)C(C)C)C(N)=O [AT103, [hGIP(3-30)NH2—C12/30]] | 121 | 7 | –
CCCCCCCCCCCCCCCC(=O)NCCCC[C@H](NC(=O)[C@H](CC(=O)O)NC(=O)[C@H](CCSC)NC(=O)[C@H](C)NC(=O)[C@@H](NC(=O)[C@H](CO)NC(=O)[C@H](Cc1ccc(O)cc1)NC(=O)[C@H](CC(=O)O)NC(=O)[C@H](CO)NC(=O)[C@@H](NC(=O)[C@H](Cc1ccccc1)NC(=O)[C@@H](N)[C@@H](C)O)[C@@H](C)CC)[C@@H](C)CC)C(=O)N[C@H](C(=O)N[C@@H](Cc1c[nH]cn1)C(=O)N[C@@H](CCC(N)=O)C(=O)N[C@@H](CCC(N)=O)C(=O)N[C@@H](CC(=O)O)C(=O)N[C@@H](Cc1ccccc1)C(=O)N[C@H](C(=O)N[C@@H](CC(N)=O)C(=O)N[C@@H](Cc1c[nH]c2ccccc12)C(=O)N[C@@H](CC(C)C)C(=O)N[C@@H](CC(C)C)C(=O)N[C@@H](C)C(=O)N[C@@H](CCC(N)=O)C(=O)N[C@@H](CCCCN)C(N)=O)C(C)C)[C@@H](C)CC [AT125, [hGIP(5-30)NH2—C16/16]] | 131 | 0 | –
CCCCCCCCCCCCCCCCCC(=O)NCCCC[C@H](NC(=O)[C@H](CC(=O)O)NC(=O)[C@H](CCSC)NC(=O)[C@H](C)NC(=O)[C@@H](NC(=O)[C@H](CO)NC(=O)[C@H](Cc1ccc(O)cc1)NC(=O)[C@H](CC(=O)O)NC(=O)[C@H](CO)NC(=O)[C@@H](NC(=O)[C@H](Cc1ccccc1)NC(=O)[C@@H](N)[C@@H](C)O)[C@@H](C)CC)[C@@H](C)CC)C(=O)N[C@H](C(=O)N[C@@H](Cc1c[nH]cn1)C(=O)N[C@@H](CCC(N)=O)C(=O)N[C@@H](CCC(N)=O)C(=O)N[C@@H](CC(=O)O)C(=O)N[C@@H](Cc1ccccc1)C(=O)N[C@H](C(=O)N[C@@H](CC(N)=O)C(=O)N[C@@H](Cc1c[nH]c2ccccc12)C(=O)N[C@@H](CC(C)C)C(=O)N[C@@H](CC(C)C)C(=O)N[C@@H](C)C(=O)N[C@@H](CCC(N)=O)C(=O)N[C@@H](CCCCN)C(N)=O)C(C)C)[C@@H](C)CC [AT128, [hGIP(5-30)NH2—C18/16]] | 114 | 25 | –
CCCCCCCCCCCCCCCC(=O)NCCCC[C@H](NC(=O)[C@@H](NC(=O)[C@H](CCCCN)NC(=O)[C@H](CC(=O)O)NC(=O)[C@H](CCSC)NC(=O)[C@H](C)NC(=O)[C@@H](NC(=O)[C@H](CO)NC(=O)[C@H](Cc1ccc(O)cc1)NC(=O)[C@H](CC(=O)O)NC(=O)[C@H](CO)NC(=O)[C@@H](NC(=O)[C@H](Cc1ccccc1)NC(=O)[C@@H](N)[C@@H](C)O)[C@@H](C)CC)[C@@H](C)CC)[C@@H](C)CC)C(=O)N[C@@H](CCC(N)=O)C(=O)N[C@@H](CCC(N)=O)C(=O)N[C@@H](CC(=O)O)C(=O)N[C@@H](Cc1ccccc1)C(=O)N[C@H](C(=O)N[C@@H](CC(N)=O)C(=O)N[C@@H](Cc1c[nH]c2ccccc12)C(=O)N[C@@H](CC(C)C)C(=O)N[C@@H](CC(C)C)C(=O)N[C@@H](C)C(=O)N[C@@H](CCC(N)=O)C(=O)N[C@@H](CCCCN)C(N)=O)C(C)C [AT145, [hGIP(5-30)NH2[H18K]-C16/18]] (H-TFISDYSIAMDKIK(Palmitoyl)QQDFVNWLLAQK-NH2; N-terminus assumed) | 66 | 16 | EC50 (human GIP receptor [2]; [5]): 33 nM
CC[C@H](C)[C@H](NC(=O)[C@H](CO)NC(=O)[C@H](Cc1ccc(O)cc1)NC(=O)[C@H](CC(=O)O)NC(=O)[C@H](CO)NC(=O)[C@@H](NC(=O)[C@H](Cc1ccccc1)NC(=O)[C@@H](N)[C@@H](C)O)[C@@H](C)CC)C(=O)N[C@@H](C)C(=O)N[C@@H](CCSC)C(=O)N[C@@H](CC(=O)O)C(=O)N[C@@H](CCCNC(=N)N)C(=O)N[C@H](C(=O)N[C@@H](CCCCNC(=O)CCCCCCCCCCCCCCC(=O)O)C(=O)N[C@@H](CCC(N)=O)C(=O)N[C@@H](CCC(N)=O)C(=O)N[C@@H](CC(=O)O)C(=O)N[C@@H](Cc1ccccc1)C(=O)N[C@H](C(=O)N[C@@H](CC(N)=O)C(=O)N[C@@H](Cc1c[nH]c2ccccc12)C(=O)N[C@@H](CC(C)C)C(=O)N[C@@H](CC(C)C)C(=O)N[C@@H](C)C(=O)N[C@@H](CCC(N)=O)C(=O)N[C@@H](CCCNC(=N)N)C(N)=O)C(C)C)[C@@H](C)CC [AT157, [hGIP(5-30)NH2[K16R; H18K; K30R]-C16diacid/18]] (H-TFISDYSIAMDRIK(C16 diacid)QQDFVNWLLAQR-NH2; N-terminus assumed) | 7 | 12 | IC50 (human GIP receptor [1]; given as log IC50 (negative sign), transiently transfected COS-7 cells, Table 1, read-out: cAMP antagonism log (converted)): 7.94 nM; EC50 (human GIP receptor [2]; given as log EC50 (negative sign), read-out: cAMP agonism EC50 (log) (converted)): 10 nM
CCCCCCCCCCCCCCCCCC(=O)NCCCC[C@H](NC(=O)[C@@H](NC(=O)[C@H](CCCCN)NC(=O)[C@H](CC(=O)O)NC(=O)[C@H](CCSC)NC(=O)[C@H](C)NC(=O)[C@@H](NC(=O)[C@H](CO)NC(=O)[C@H](Cc1ccc(O)cc1)NC(=O)[C@H](CC(=O)O)NC(=O)[C@H](CO)NC(=O)[C@@H](NC(=O)[C@H](Cc1ccccc1)NC(=O)[C@@H](N)[C@@H](C)O)[C@@H](C)CC)[C@@H](C)CC)[C@@H](C)CC)C(=O)N[C@@H](CCC(N)=O)C(=O)N[C@@H](CCC(N)=O)C(=O)N[C@@H](CC(=O)O)C(=O)N[C@@H](Cc1ccccc1)C(=O)N[C@H](C(=O)N[C@@H](CC(N)=O)C(=O)N[C@@H](Cc1c[nH]c2ccccc12)C(=O)N[C@@H](CC(C)C)C(=O)N[C@@H](CC(C)C)C(=O)N[C@@H](C)C(=O)N[C@@H](CCC(N)=O)C(=O)N[C@@H](CCCCN)C(N)=O)C(C)C [AT161, [hGIP(5-30)NH2[H18K]-C18/18]] (H-TFISDYSIAMDKIK(Stearoyl)QQDFVNWLLAQK-NH2; N-terminus assumed) | 252 | 7 | –
CC[C@H](C)[C@H](NC(=O)[C@H](CO)NC(=O)[C@H](Cc1ccc(O)cc1)NC(=O)[C@H](CC(=O)O)NC(=O)[C@H](CO)NC(=O)[C@@H](NC(=O)[C@H](Cc1ccccc1)NC(=O)[C@H](CCCCNC(=O)CCCCCCCCCCCCCCC(=O)O)NC(=O)CNC(=O)[C@@H](N)CCC(=O)O)[C@@H](C)CC)C(=O)N[C@@H](C)C(=O)N[C@@H](CCSC)C(=O)N[C@@H](CC(=O)O)C(=O)N[C@@H](CCCCN)C(=O)N[C@H](C(=O)N[C@@H](Cc1c[nH]cn1)C(=O)N[C@@H](CCC(N)=O)C(=O)N[C@@H](CCC(N)=O)C(=O)N[C@@H](CC(=O)O)C(=O)N[C@@H](Cc1ccccc1)C(=O)N[C@H](C(=O)N[C@@H](CC(N)=O)C(=O)N[C@@H](Cc1c[nH]c2ccccc12)C(=O)N[C@@H](CC(C)C)C(=O)N[C@@H](CC(C)C)C(=O)N[C@@H](C)C(=O)N[C@@H](CCC(N)=O)C(=O)N[C@@H](CCCCN)C(N)=O)C(C)C)[C@@H](C)CC [AT296, [hGIP(3-30)NH2[T5K]-C16diacid/5]] | 14 | 6.7 | EC50 (human GIP receptor [2]; [5]): 2.6 nM
CC[C@H](C)[C@H](NC(=O)[C@H](CO)NC(=O)[C@H](Cc1ccc(O)cc1)NC(=O)[C@H](CC(=O)O)NC(=O)[C@H](CO)NC(=O)[C@@H](NC(=O)[C@H](Cc1ccccc1)NC(=O)[C@@H](N)[C@@H](C)O)[C@@H](C)CC)C(=O)N[C@@H](C)C(=O)N[C@@H](CCSC)C(=O)N[C@@H](CC(=O)O)C(=O)N[C@@H](CCCCN)C(=O)N[C@H](C(=O)N[C@@H](Cc1c[nH]cn1)C(=O)N[C@@H](CCC(N)=O)C(=O)N[C@@H](CCC(N)=O)C(=O)N[C@@H](CC(=O)O)C(=O)N[C@@H](Cc1ccccc1)C(=O)N[C@H](C(=O)N[C@@H](CC(N)=O)C(=O)N[C@@H](Cc1c[nH]c2ccccc12)C(=O)N[C@@H](CC(C)C)C(=O)N[C@@H](CC(C)C)C(=O)N[C@@H](C)C(=O)N[C@@H](CCC(N)=O)C(=O)N[C@@H](CCCCN)C(N)=O)C(C)C)[C@@H](C)CC [hGIP(5-30)NH2, reference compound] | – | – | IC50 (human GIP receptor [1]; cAMP accumulation IC50 (nM), antagonism of GIP-mediated cAMP response, COS-7 cells): 27.5 nM; IC50 (human GIP receptor [1]; cAMP antagonism nM (IC50, antagonistic potency), transiently transfected COS-7 cells, Table 1 and text): 28 nM; Binding (+/−HSA) Fold (human GIP receptor [3]): 1.0
